This experiment deals with T1, LXRβ (Homo sapiens, UniProt P55055).
T1 construct: Co-transfection expression plasmids, comprising full-length LXRα (pCMX-h LXRα or LXRβ (pCMX-hLXRβ)); expressed in transfected cells; host or cells: CV-1 African green monkey kidney cells, transient transfection with pCMX-hLXRβ
T1 sequence (P55055 1-460): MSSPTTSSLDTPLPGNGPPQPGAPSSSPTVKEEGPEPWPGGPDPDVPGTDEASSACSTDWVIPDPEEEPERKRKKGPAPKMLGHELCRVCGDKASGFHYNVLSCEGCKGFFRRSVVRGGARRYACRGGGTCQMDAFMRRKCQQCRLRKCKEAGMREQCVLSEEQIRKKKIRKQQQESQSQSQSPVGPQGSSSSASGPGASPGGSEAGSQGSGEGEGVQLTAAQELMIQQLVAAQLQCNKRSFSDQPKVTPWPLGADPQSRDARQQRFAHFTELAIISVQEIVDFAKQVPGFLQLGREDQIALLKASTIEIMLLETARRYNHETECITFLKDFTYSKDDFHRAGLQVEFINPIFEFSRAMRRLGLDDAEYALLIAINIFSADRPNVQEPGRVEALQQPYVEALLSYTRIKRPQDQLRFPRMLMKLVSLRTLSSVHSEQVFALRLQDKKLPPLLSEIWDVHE
T1 sequence (P19793 1-462 partner): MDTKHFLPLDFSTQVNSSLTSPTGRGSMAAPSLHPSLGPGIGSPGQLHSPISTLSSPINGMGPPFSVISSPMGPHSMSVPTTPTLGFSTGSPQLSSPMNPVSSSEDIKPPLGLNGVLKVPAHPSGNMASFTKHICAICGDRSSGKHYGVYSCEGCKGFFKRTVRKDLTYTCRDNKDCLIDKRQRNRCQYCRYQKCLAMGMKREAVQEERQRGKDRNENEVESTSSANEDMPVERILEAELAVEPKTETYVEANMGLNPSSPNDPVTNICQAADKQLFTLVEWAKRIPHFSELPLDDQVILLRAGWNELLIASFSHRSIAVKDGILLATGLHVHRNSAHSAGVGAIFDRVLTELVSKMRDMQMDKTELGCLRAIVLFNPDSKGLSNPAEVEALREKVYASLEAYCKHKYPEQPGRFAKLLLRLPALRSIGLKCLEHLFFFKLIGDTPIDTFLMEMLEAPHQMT
Put plainly: LXR/LXRE co-transfection assay (luciferase reporter) in CV-1 cells, LXRβ. Type of experiment: cell-based. To be noted: for EC50: CV-1 cells transfected with pCMX-hLXRβ and LXREx1-Tk-Luciferase, 20 hours incubation, read-out: LXRbeta agonism EC50; for Emax / LXRbeta % EFFICACY: CV-1 cells, relative to maximum response of high control N-(3-((4-fluorophenyl)-(naphthalene-2-sulfonyl)amino)propyl)-2,2-dimethylpropionamide; for Emax: read-out: LXRbeta % EFFICACY
The gist of the method: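 Luciferase read-out after 20 h compound treatment at 37 °C of CV-1 cells carrying transfected hLXRβ plus one-copy LXRE reporter, endogenous RXR partnering. Sigmoidal fit of 10-point half-log curves (4 wells each) gave EC50; % efficacy versus maximal response of the propionamide reference agonist.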
On the technique in general: In a reporter assay the amount or activity of a reporter protein is the signal.

The EC50 is the concentration giving half of the maximal effect. Consider `CNC(=O)C(F)(F)c1cc(-c2ccc(-c3cc(F)c(CO)c(S(C)(=O)=O)c3)cc2-c2nc(C)oc2-c2ccc3c(c2)OC(F)(F)O3)n(C)n1` [Example 91, 2-(5-(3-(5-(2,2-difluorobenzo[d][1,3]dioxol-5-yl)-2-methyloxazol-4-yl)-3′-fluoro-4′-(hydroxymethyl)-5′-(methylsulfonyl)biphenyl-4-yl)-1-methyl-1H-pyrazol-3-yl)-2,2-difluoro-N-methylacetamide], for which the EC50 was determined as 135 nM and the Emax stood at 45%.

Take `Cc1nc(-c2ccc3c(c2)OC(F)(F)O3)c(-c2cc(-c3cc(F)c(CO)c(S(C)(=O)=O)c3)ccc2-c2cc(C(C)(C)O)nn2C)o1` [Example 92, 2-(5-(3-(4-(2,2-difluorobenzo[d][1,3]dioxol-5-yl)-2-methyloxazol-5-yl)-3′-fluoro-4′-(hydroxymethyl)-5′-(methylsulfonyl)biphenyl-4-yl)-1-methyl-1H-pyrazol-3-yl)propan-2-ol]: the EC50 came to 105 nM and the Emax is 38%.

For the molecule `Cc1nc(-c2ccc(OC(F)(F)F)cc2)c(-c2cc(-c3cc(F)c(CO)c(S(C)(=O)=O)c3)ccc2-c2cc(C(F)(F)F)nn2C)o1` [Example 93, (3-fluoro-4′-(1-methyl-3-(trifluoromethyl)-1H-pyrazol-5-yl)-3′-(2-methyl-4-(4-(trifluoromethoxy)phenyl)oxazol-5-yl)-5-(methylsulfonyl)biphenyl-4-yl)methanol], the EC50 is 16 nM and the Emax was 93%.

For `Cc1nc(-c2ccc3c(c2)OC(F)(F)O3)c(-c2cc(-c3cccc(S(C)(=O)=O)c3)ccc2-c2cc(C(C)(F)F)nn2C)o1` [Example 94, 4-(2,2-difluorobenzo[d][1,3]dioxol-5-yl)-5-(4-(3-(1,1-difluoroethyl)-1-methyl-1H-pyrazol-5-yl)-3′-(methylsulfonyl)biphenyl-3-yl)-2-methyloxazole], the EC50 turned out to be 32 nM and the Emax came out at 87%.

For the molecule `Cc1nc(-c2ccc3c(c2)OC(F)(F)O3)c(-c2cc(-c3cc(F)c(CO)c(S(C)(=O)=O)c3)ccc2-c2cc(C(C)(F)F)nn2C)o1` [Example 95, (3′-(4-(2,2-difluorobenzo[d][1,3]dioxol-5-yl)-2-methyloxazol-5-yl)-4′-(3-(1,1-difluoroethyl)-1-methyl-1H-pyrazol-5-yl)-3-fluoro-5-(methylsulfonyl)biphenyl-4-yl)methanol], the EC50 came out at 19 nM and the Emax was 65%.

Take `Cc1nc(-c2ccc3c(c2)OC(F)(F)O3)c(-c2cc(-c3cccc(S(C)(=O)=O)c3)ccc2-c2cc(C(C)(C)C(N)=O)nn2C)o1` [Example 96, 2-(5-(3-(4-(2,2-difluorobenzo[d][1,3]dioxol-5-yl)-2-methyloxazol-5-yl)-3′-(methylsulfonyl)biphenyl-4-yl)-1-methyl-1H-pyrazol-3-yl)-2-methylpropanamide]: the EC50 came to 126 nM and the Emax was found to be 61%.

On to `Cc1nc(-c2ccc3c(c2)OC(F)(F)O3)c(-c2cc(-c3cc(F)c(CO)c(S(C)(=O)=O)c3)ccc2-c2cc(C(C)(C)C#N)nn2C)o1` [Example 97, 2-(5-(3-(4-(2,2-difluorobenzo[d][1,3]dioxol-5-yl)-2-methyloxazol-5-yl)-3′-fluoro-4′-(hydroxymethyl)-5′-(methylsulfonyl)biphenyl-4-yl)-1-methyl-1H-pyrazol-3-yl)-2-methylpropanenitrile], for which the EC50 stood at 48 nM and the Emax worked out at 82%.

As for `Cc1nc(-c2ccc3c(c2)OC(F)(F)O3)c(-c2cc(-c3cccc(S(C)(=O)=O)c3)ccc2-c2cc(CO)nn2C)o1` [Example 98, (5-(3-(4-(2,2-difluorobenzo[d][1,3]dioxol-5-yl)-2-methyloxazol-5-yl)-3′-(methylsulfonyl)-[1,1′-biphenyl]-4-yl)-1-methyl-1H-pyrazol-3-yl)methanol], the EC50 was 258 nM and the Emax stood at 57%.

Regarding `Cc1nc(-c2ccc3c(c2)OC(F)(F)O3)c(-c2cc(-c3cc(F)c(CO)c(S(C)(=O)=O)c3)ccc2-c2cc(CO)nn2C)o1` [Example 99, (5-(3-(4-(2,2-difluorobenzo[d][1,3]dioxol-5-yl)-2-methyloxazol-5-yl)-3′-fluoro-4′-(hydroxymethyl)-5′-(methylsulfonyl)-[1,1′-biphenyl]-4-yl)-1-methyl-1H-pyrazol-3-yl)methanol], the EC50 was determined as 279 nM and the Emax turned out to be 26%.

On to `Cc1nc(-c2ccc3c(c2)OC(F)(F)O3)c(-c2cc(-c3cccc(S(C)(=O)=O)c3)ccc2-c2cc(-c3nnco3)nn2C)o1` [Example 100, 2-(5-(3-(4-(2,2-difluorobenzo[d][1,3]dioxol-5-yl)-2-methyloxazol-5-yl)-3′-(methylsulfonyl)-[1,1′-biphenyl]-4-yl)-1-methyl-1H-pyrazol-3-yl)-1,3,4-oxadiazole], for which the EC50 was 193 nM and the Emax is 52%.

For `Cc1nc(-c2ccc3c(c2)OC(F)(F)O3)c(-c2cc(-c3cccc(S(C)(=O)=O)c3)ccc2-c2cc(C(C)O)nn2C)o1` (stereo not shown) [Example 101, 1-(5-(3-(4-(2,2-difluorobenzo[d][1,3]dioxol-5-yl)-2-methyloxazol-5-yl)-3′-(methylsulfonyl)-[1,1′-biphenyl]-4-yl)-1-methyl-1H-pyrazol-3-yl)ethanol], the EC50 came out at 79 nM and the “LXRbeta % EFFICACY” value was found to be 50%.

For `Cc1nc(-c2ccc3c(c2)OC(F)(F)O3)c(-c2cc(-c3cccc(S(C)(=O)=O)c3)ccc2-c2cc(C(C)O)nn2C)o1` (stereo not shown) [Example 102], the EC50 is 227 nM and the “LXRbeta % EFFICACY” value was 96%.

Consider `Cc1nc(-c2ccc3c(c2)OC(F)(F)O3)c(-c2cc(-c3cc(F)c(CO)c(S(C)(=O)=O)c3)ccc2-c2cc(C(C)O)nn2C)o1` (stereo not shown) [Example 103, 1-(5-(3-(4-(2,2-difluorobenzo[d][1,3]dioxol-5-yl)-2-methyloxazol-5-yl)-3′-fluoro-4′-(hydroxymethyl)-5′-(methylsulfonyl)-[1,1′-biphenyl]-4-yl)-1-methyl-1H-pyrazol-3-yl)ethanol], for which the EC50 came to 148 nM and the Emax is 47%.

On to `Cc1nc(-c2ccc3c(c2)OC(F)(F)O3)c(-c2cc(-c3cc(F)c(CO)c(S(C)(=O)=O)c3)ccc2-c2cc(C(C)O)nn2C)o1` (stereo not shown) [Example 104, 1-(5-(3-(4-(2,2-difluorobenzo[d][1,3]dioxol-5-yl)-2-methyloxazol-5-yl)-3′-fluoro-4′-(hydroxymethyl)-5′-(methylsulfonyl)-[1,1′-biphenyl]-4-yl)-1-methyl-1H-pyrazol-3-yl)ethanol], for which the EC50 was 54 nM and the “LXRbeta % EFFICACY” value is recorded as 56%.

On to `Cc1nc(-c2ccc3c(c2)OC(F)(F)O3)c(-c2cc(-c3cc(F)c(CO)c(S(C)(=O)=O)c3)ccc2-c2cc(C(F)(F)CO)nn2C)o1` [Example 105, 2-(5-(3-(4-(2,2-difluorobenzo[d][1,3]dioxol-5-yl)-2-methyloxazol-5-yl)-3′-fluoro-4′-(hydroxymethyl)-5′-(methylsulfonyl)-[1,1′-biphenyl]-4-yl)-1-methyl-1H-pyrazol-3-yl)-2,2-difluoroethanol], for which the EC50 came out at 74 nM and the Emax came to 66%.

As for `Cc1nc(-c2ccc3c(c2)OC(F)(F)O3)c(-c2cc(-c3cccc(S(C)(=O)=O)c3)ccc2-c2cc(C(F)(F)CO)nn2C)o1` [Example 106, 2-(5-(3-(4-(2,2-difluorobenzo[d][1,3]dioxol-5-yl)-2-methyloxazol-5-yl)-3′-(methylsulfonyl)-[1,1′-biphenyl]-4-yl)-1-methyl-1H-pyrazol-3-yl)-2,2-difluoroethanol], the EC50 was found to be 71 nM and the Emax came to 64%.

For `Cc1nc(-c2ccc3c(c2)OC(F)(F)O3)c(-c2cc(-c3cccc(S(C)(=O)=O)c3)ccc2-c2cc(C(=O)NC3CC3)nn2C)o1` [Example 107, N-cyclopropyl-5-(3-(4-(2,2-difluorobenzo[d][1,3]dioxol-5-yl)-2-methyloxazol-5-yl)-3′-(methylsulfonyl)-[1,1′-biphenyl]-4-yl)-1-methyl-1H-pyrazole-3-carboxamide], the EC50 was 1250 nM and the Emax came out at 37%.

For the origin of these results see patent publication US9751869B2, “LXR modulators” (BRISTOL-MYERS SQUIBB COMPANY, priority 2013, dated 2017).
